Experimental data from ChEMBL document CHEMBL1151745, “Identification of potent, selective, and metabolically stable peptide antagonists to the calcitonin gene-related peptide (CGRP) receptor” (J Med Chem, 2008).
The source made the active and inactive calls. The calls are words filed in the database; no cut-off is given here. Where a SMILES comes first, the peptide text is derived from it. [ ]: non-standard residue; d: D form. Igl = N[C@H](C(=O)O)C1Cc2ccccc2C1; hArg = N=C(N)NCCCC[C@H](N)C(=O)O; Cit = NC(=O)NCCC[C@H](N)C(=O)O

target: Calcitonin gene-related peptide type 1 receptor (Homo sapiens) (UniProt Q16602); assay: Agonist activity at human CGRP1 receptor in human SK-N-MC cells
Sequence (Q16602 whole entry, looked up): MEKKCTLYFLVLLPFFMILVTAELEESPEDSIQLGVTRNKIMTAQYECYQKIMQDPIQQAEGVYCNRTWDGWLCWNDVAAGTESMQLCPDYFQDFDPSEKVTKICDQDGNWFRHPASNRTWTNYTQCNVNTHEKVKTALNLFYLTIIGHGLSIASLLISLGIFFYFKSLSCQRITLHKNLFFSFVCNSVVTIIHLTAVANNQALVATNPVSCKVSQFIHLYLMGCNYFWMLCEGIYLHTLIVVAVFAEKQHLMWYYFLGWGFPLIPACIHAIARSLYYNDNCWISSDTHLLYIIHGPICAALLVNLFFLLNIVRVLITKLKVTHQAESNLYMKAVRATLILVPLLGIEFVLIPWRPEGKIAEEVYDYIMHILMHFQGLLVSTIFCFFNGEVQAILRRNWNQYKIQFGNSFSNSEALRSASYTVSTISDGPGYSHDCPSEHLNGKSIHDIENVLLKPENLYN

**Q.** With `CC(=O)N[C@@H](Cc1c[nH]c2ccccc12)C(=O)N[C@H](C(=O)N[C@H](C(=O)N[C@@H](Cc1cnc[nH]1)C(=O)N[C@@H](CCCNC(N)=O)C(=O)N[C@@H](CC(C)C)C(=O)N[C@@H](C)C(=O)NCC(=O)N[C@@H](CC(C)C)C(=O)N[C@@H](CC(C)C)C(=O)N[C@@H](CO)C(=O)N[C@@H](CCCNC(N)=O)C(=O)N[C@@H](CO)C(=O)NCC(=O)NCC(=O)N[C@H](C(=O)N[C@H](C(=O)N[C@@H](CCCCNC(=N)N)C(=O)N[C@@H](CCCCN)C(=O)N[C@@H](CC(N)=O)C(=O)N[C@@H](Cc1ccccc1)C(=O)N[C@H](C(=O)N1CCC[C@H]1C(=O)N[C@H](C(=O)N[C@@H](CC(=O)O)C(=O)N[C@H](C(=O)NCC(=O)N1CCC[C@@H]1C(=O)N[C@@H](Cc1ccc(-c2ccccc2)cc1)C(=O)N[C@@H](C)C(=O)N[C@@H](Cc1ccccc1)C(N)=O)C(C)C)[C@@H](C)O)C(C)C)C(C)C)C(C)C)[C@@H](C)O)C(C)C` as the compound, how does the Activity read?
**A.** inactive

**Q.** With `CC(=O)N[C@@H](Cc1c[nH]c2ccccc12)C(=O)N[C@H](C(=O)N[C@H](C(=O)N[C@@H](Cc1cnc[nH]1)C(=O)N[C@@H](CCCNC(N)=O)C(=O)N[C@@H](CC(C)C)C(=O)N[C@@H](C)C(=O)NCC(=O)N[C@@H](CC(C)C)C(=O)N[C@@H](CC(C)C)C(=O)N[C@@H](CO)C(=O)N[C@@H](CCCNC(N)=O)C(=O)N[C@@H](CO)C(=O)NCC(=O)NCC(=O)N[C@H](C(=O)N[C@H](C(=O)N[C@@H](CCCCNC(=N)N)C(=O)N[C@@H](CCCCN)C(=O)N[C@@H](CC(N)=O)C(=O)N[C@@H](Cc1ccc2ccccc2c1)C(=O)N[C@H](C(=O)N1CCC[C@H]1C(=O)N[C@H](C(=O)N[C@@H](CC(=O)O)C(=O)N[C@H](C(=O)NCC(=O)N1C2CCCCC2C[C@H]1C(=O)N[C@@H](Cc1ccccc1)C(=O)N[C@@H](C)C(=O)N[C@@H](Cc1ccc2ccccc2c1)C(N)=O)C(C)C)[C@@H](C)O)C(C)C)C(C)C)C(C)C)[C@@H](C)O)C(C)C` (stereo not given in full) as the compound, how does the Activity read?
**A.** inactive

**Q.** For `CC(=O)N[C@@H](Cc1c[nH]c2ccccc12)C(=O)N[C@H](C(=O)N[C@H](C(=O)N[C@@H](Cc1cnc[nH]1)C(=O)N[C@@H](CCCNC(N)=O)C(=O)N[C@@H](CC(C)C)C(=O)N[C@@H](C)C(=O)NCC(=O)N[C@@H](CC(C)C)C(=O)N[C@@H](CC(C)C)C(=O)N[C@@H](CO)C(=O)N[C@@H](CCCNC(=N)N)C(=O)N[C@@H](CO)C(=O)NCC(=O)NCC(=O)N[C@H](C(=O)N[C@H](C(=O)N[C@@H](CCCNC(=N)N)C(=O)N[C@@H](CCCCN)C(=O)N[C@@H](CC(N)=O)C(=O)N[C@@H](Cc1ccccc1)C(=O)N[C@H](C(=O)N1CCC[C@H]1C(=O)N[C@H](C(=O)N[C@@H](CC(=O)O)C(=O)N[C@H](C(=O)NCC(=O)N1CCC[C@H]1C(=O)N[C@@H](Cc1ccccc1)C(=O)N[C@@H](C)C(=O)N[C@@H](Cc1ccccc1)C(N)=O)C(C)C)[C@@H](C)O)C(C)C)C(C)C)C(C)C)[C@@H](C)O)C(C)C`, which Activity is on record?
**A.** inactive

**Q.** How did the Activity turn out when `CC(=O)N[C@@H](Cc1c[nH]c2ccccc12)C(=O)N[C@H](C(=O)N[C@H](C(=O)N[C@@H](Cc1cnc[nH]1)C(=O)N[C@@H](CCCNC(=N)N)C(=O)N[C@@H](CC(C)C)C(=O)N[C@@H](C)C(=O)NCC(=O)N[C@@H](CC(C)C)C(=O)N[C@@H](CC(C)C)C(=O)N[C@@H](CO)C(=O)N[C@@H](CCCNC(N)=O)C(=O)N[C@@H](CO)C(=O)NCC(=O)NCC(=O)N[C@H](C(=O)N[C@H](C(=O)N[C@@H](CCCNC(=N)N)C(=O)N[C@@H](CCCCN)C(=O)N[C@@H](CC(N)=O)C(=O)N[C@@H](Cc1ccccc1)C(=O)N[C@H](C(=O)N1CCC[C@H]1C(=O)N[C@H](C(=O)N[C@@H](CC(=O)O)C(=O)N[C@H](C(=O)NCC(=O)N1CCC[C@H]1C(=O)N[C@@H](Cc1ccccc1)C(=O)N[C@@H](C)C(=O)N[C@@H](Cc1ccccc1)C(N)=O)C(C)C)[C@@H](C)O)C(C)C)C(C)C)C(C)C)[C@@H](C)O)C(C)C` was run?
**A.** inactive

**Q.** For `CC(=O)N[C@@H](Cc1c[nH]c2ccccc12)C(=O)N[C@H](C(=O)N[C@H](C(=O)N[C@@H](Cc1cnc[nH]1)C(=O)N[C@@H](CCCNC(N)=O)C(=O)N[C@@H](CC(C)C)C(=O)N[C@@H](C)C(=O)NCC(=O)N[C@@H](CC(C)C)C(=O)N[C@@H](CC(C)C)C(=O)N[C@@H](CO)C(=O)N[C@@H](CCCNC(N)=O)C(=O)N[C@@H](CO)C(=O)NCC(=O)NCC(=O)N[C@H](C(=O)N[C@H](C(=O)N[C@@H](CCCCNC(=N)N)C(=O)N[C@@H](CCCCN)C(=O)N[C@@H](CC(N)=O)C(=O)N[C@@H](Cc1ccccc1)C(=O)N[C@H](C(=O)N1CCC[C@H]1C(=O)N[C@H](C(=O)N[C@@H](CC(=O)O)C(=O)N[C@H](C(=O)NCC(=O)N1CCC[C@@H]1C(=O)N[C@@H](Cc1ccccc1)C(=O)N[C@@H](C)C(=O)N[C@@H](Cc1ccccc1)C(N)=O)C(C)C)[C@@H](C)O)C(C)C)C(C)C)C(C)C)[C@@H](C)O)C(C)C`, which Activity is on record?
**A.** inactive

**Q.** Which Activity does the source give for `CC(=O)N[C@@H](Cc1c[nH]c2ccccc12)C(=O)N[C@H](C(=O)N[C@H](C(=O)N[C@@H](Cc1cnc[nH]1)C(=O)N[C@@H](CCCNC(N)=O)C(=O)N[C@@H](CC(C)C)C(=O)N[C@@H](C)C(=O)NCC(=O)N[C@@H](CC(C)C)C(=O)N[C@@H](CC(C)C)C(=O)N[C@@H](CO)C(=O)N[C@@H](CCCNC(N)=O)C(=O)N[C@@H](CO)C(=O)NCC(=O)NCC(=O)N[C@H](C(=O)N[C@H](C(=O)N[C@@H](CCCCNC(=N)N)C(=O)N[C@@H](CCCCN)C(=O)N[C@@H](CC(N)=O)C(=O)N[C@@H](Cc1ccccc1)C(=O)N[C@H](C(=O)N1CCC[C@H]1C(=O)N[C@H](C(=O)N[C@@H](CC(=O)O)C(=O)N[C@H](C(=O)NCC(=O)N1C[C@H](O)C[C@H]1C(=O)N[C@@H](Cc1ccccc1)C(=O)N[C@@H](C)C(=O)N[C@@H](Cc1ccccc1)C(N)=O)C(C)C)[C@@H](C)O)C(C)C)C(C)C)C(C)C)[C@@H](C)O)C(C)C` here?
**A.** inactive

**Q.** `CC(=O)N[C@@H](Cc1c[nH]c2ccccc12)C(=O)N[C@H](C(=O)N[C@H](C(=O)N[C@@H](Cc1cnc[nH]1)C(=O)N[C@@H](CCCNC(N)=O)C(=O)N[C@@H](CC(C)C)C(=O)N[C@@H](C)C(=O)NCC(=O)N[C@@H](CC(C)C)C(=O)N[C@@H](CC(C)C)C(=O)N[C@@H](CO)C(=O)N[C@@H](CCCNC(N)=O)C(=O)N[C@@H](CO)C(=O)NCC(=O)NCC(=O)N[C@H](C(=O)N[C@H](C(=O)N[C@@H](CCCCNC(=N)N)C(=O)N[C@@H](CCCCN)C(=O)N[C@@H](CC(N)=O)C(=O)N[C@@H](Cc1ccccc1)C(=O)N[C@H](C(=O)N1CCC[C@H]1C(=O)N[C@H](C(=O)N[C@@H](CC(=O)O)C(=O)N[C@H](C(=O)NCC(=O)N1CCC[C@H]1C(=O)N[C@H](C(=O)N[C@@H](C)C(=O)N[C@@H](Cc1ccccc1)C(N)=O)C1Cc2ccccc2C1)C(C)C)[C@@H](C)O)C(C)C)C(C)C)C(C)C)[C@@H](C)O)C(C)C` (Ac-WVTH[Cit]LAGLLS[Cit]SGGVV[hArg]KNFVPTDVGP[Igl]AF-NH2) was tested. Which Activity did it give?
**A.** inactive

**Q.** Which Activity does the source give for `CC(=O)N[C@@H](Cc1c[nH]c2ccccc12)C(=O)N[C@H](C(=O)N[C@H]1CCC(=O)NCCCC[C@@H](C(=O)NCC(=O)N[C@H]2CCC(=O)NCCCC[C@@H](C(=O)NCC(=O)NCC(=O)N[C@H](C(=O)N[C@H](C(=O)N[C@@H](CCCCNC(=N)N)C(=O)N[C@@H](CCCCN)C(=O)N[C@@H](CC(N)=O)C(=O)N[C@@H](Cc3ccccc3)C(=O)N[C@H](C(=O)N3CCC[C@H]3C(=O)N[C@H](C(=O)N[C@@H](CC(=O)O)C(=O)N[C@H](C(=O)NCC(=O)N3CCC[C@H]3C(=O)N[C@@H](Cc3ccccc3)C(=O)N[C@@H](C)C(=O)N[C@@H](Cc3ccccc3)C(N)=O)C(C)C)[C@@H](C)O)C(C)C)C(C)C)C(C)C)NC(=O)[C@H](CCCNC(=N)N)NC(=O)[C@H](CO)NC(=O)[C@H](CC(C)C)NC2=O)NC(=O)[C@H](CC(C)C)NC(=O)[C@H](CCCNC(=N)N)NC(=O)[C@H](Cc2cnc[nH]2)NC1=O)C(C)C` here?
**A.** inactive

**Q.** For `CC(=O)N[C@@H](Cc1c[nH]c2ccccc12)C(=O)N[C@H](C(=O)N[C@H](C(=O)N[C@@H](Cc1cnc[nH]1)C(=O)N[C@@H](CCCNC(N)=O)C(=O)N[C@@H](CC(C)C)C(=O)N[C@@H](C)C(=O)NCC(=O)N[C@@H](CC(C)C)C(=O)N[C@@H](CC(C)C)C(=O)N[C@@H](CO)C(=O)N[C@@H](CCCNC(N)=O)C(=O)N[C@@H](CO)C(=O)NCC(=O)NCC(=O)N[C@H](C(=O)N[C@H](C(=O)N[C@@H](CCCCNC(=N)N)C(=O)N[C@@H](CCCCN)C(=O)N[C@@H](CC(N)=O)C(=O)N[C@@H](Cc1ccccc1)C(=O)N[C@H](C(=O)N1CCC[C@H]1C(=O)N[C@H](C(=O)N[C@@H](CC(=O)O)C(=O)N[C@H](C(=O)NCC(=O)N(C)CC(=O)N[C@@H](Cc1ccccc1)C(=O)N[C@@H](C)C(=O)N[C@@H](Cc1ccccc1)C(N)=O)C(C)C)[C@@H](C)O)C(C)C)C(C)C)C(C)C)[C@@H](C)O)C(C)C`, which Activity is on record?
**A.** inactive

**Q.** With `CC(=O)N[C@@H](Cc1c[nH]c2ccccc12)C(=O)N[C@H](C(=O)N[C@H](C(=O)N[C@@H](Cc1cnc[nH]1)C(=O)N[C@@H](CCCNC(N)=O)C(=O)N[C@@H](CC(C)C)C(=O)N[C@@H](C)C(=O)NCC(=O)N[C@@H](CC(C)C)C(=O)N[C@@H](CC(C)C)C(=O)N[C@@H](CO)C(=O)N[C@@H](CCCNC(N)=O)C(=O)N[C@@H](CO)C(=O)NCC(=O)NCC(=O)N[C@H](C(=O)N[C@H](C(=O)N[C@@H](CCCCNC(=N)N)C(=O)N[C@@H](CCCCN)C(=O)N[C@@H](CC(N)=O)C(=O)N[C@@H](Cc1ccccc1)C(=O)N[C@H](C(=O)N1CCC[C@H]1C(=O)N[C@H](C(=O)N[C@@H](CC(=O)O)C(=O)N[C@H](C(=O)NCC(=O)N1Cc2[nH]c3ccccc3c2C[C@H]1C(=O)N[C@@H](Cc1ccccc1)C(=O)N[C@@H](C)C(=O)N[C@@H](Cc1ccccc1)C(N)=O)C(C)C)[C@@H](C)O)C(C)C)C(C)C)C(C)C)[C@@H](C)O)C(C)C` as the compound, how does the Activity read?
**A.** inactive
